Source: patent US9944597B2, “Polysubstituted pyrroles having microtubule-disrupting, cytotoxic and antitumor activities and methods of use thereof” (THE BOARD OF REGENTS OF THE UNIVERSITY OF TEXAS SYSTEM, priority 2013, dated 2018)
Like-named read-outs stand apart in the source and are kept apart here.

What was measured:
[1] = system: MDA-MB-435 (human melanoma cancer cells); assay: Antiproliferative SRB assay, MDA-MB-435; assay type: cell-based; settings: read-out: MDA-MB-435 Anti-Proliferative Activity, IC50
Description: (§1) Cell Culture. Various representative cancer and other cell lines were sourced and grown as described previously [Mooberry, S. L., et al., Mol. Pharm. 72, 132-140 (2007)]. MDA-MB-435 (human melanoma cancer cells), and MDA-MB-231 (human breast cancer cells) were grown in IMEM Richter's Medium (Life Technologies, Grand Island, N.Y.) with 10% FBS (Hyclone, Logan, Utah) and 25 μg/mL gentamicin sulfate (Life Technologies). A-10 (embryonic rat vascular smooth muscle cells) and HeLa (human cervical cancer cells), SK-OV-3 (human ovarian cancer cells) and SK-OV-3-MDR-1-M6/6 (a clone of the SK-OV-3 that was generated from SK-OV-3 cells by adenovirus-mediated expression of MDR1) were grown in Basal Medium Eagle (BME, Sigma-Aldrich, St. Louis, Mo.) containing Earle's salts, 50 μg/ml gentamicin sulfate, and 10% FBS. HeLa cells (a single-cell clone derived from transduction of HeLa cells with wild-type (WT) βIII-tubulin) were grown in Dulbecco's Modified Eagle's Medium (DMEM, Life Technologies) containing 50 μg/mL gentamicin sulfate and 10% FBS.
(§2) Antiproliferative Effects. The pyrrole compounds were evaluated for their antiproliferative effects in a panel of cancer cell lines. Cells were plated into 96-well plates at predetermined densities and allowed to attach and proliferate for 24 hr, and then the compounds were added. After a 48 hr exposure to the compounds, the cells were fixed with trichloroacetic acid and cellular protein was determined using the sulforhodamine B (SRB) assay (Skehan et al., J. Natl. Cancer Inst. 82, 1107-12, (1990); Boyd and Paull Drug Devel. Res. 34, 91-109, (1995)). Concentration response curves were constructed, and the IC50 (the concentration required to inhibit proliferation by 50%) values were determined from the linear portions of the log concentration-response curves as described previously [Tinley, T. L., et al., Cancer Res. 63, 3211-3220, (2003)] as shown in Table 48.

[2] = system: HeLa (human cervical cancer cells); assay: Antiproliferative SRB assay, HeLa; assay type: cell-based
Description: as §1, §2
(§3) First, drug resistance mediated by the expression of βIII tubulin was evaluated in an isogenic HeLa cell line pair. Expression of the βIII tubulin isotype is associated with clinical drug resistance to the taxanes in ovarian cancer, non small-cell lung cancer and breast cancer [Galmarini, C. M., et al., Clin. Cancer Res. 14, 4511-4516 (2008)]. Secondly, drug resistance mediated by the expression of the drug efflux pump protein, Pgp, was evaluated in the isogenic SK-OV-3 cell line pair. The expression of Pgp can lead to lower intracellular drug concentrations and diminished cytotoxic effects both in vitro and in vivo. All tubulin-binding anticancer drugs used currently in the clinic, except cabazitaxel, are substrates for Pgp, thus limiting their utility in drug resistant tumors [Penson, R. T., et al., Gynecol. Oncol. 93, 98-106 (2004)]. Differences in sensitivity between the parent and transformed cell line, indicative of resistance, was determined by calculating relative resistance (Rr) values in the two pairs of isogenic cell lines (dividing the IC50 of the expressing cell line by the IC50 of the parental cell line).

[3] = system: SK-OV-3 (human ovarian cancer cells); assay: Antiproliferative SRB assay, SK-OV-3; assay type: cell-based
Description: as §1, §2
as §3, with “The expression of Pgp can lead to lower intracellular drug concentrations and diminished cytotoxic effects both in vitro and in vivo.” left out

HeLa WT-β-III cells = assay: Antiproliferative SRB assay, βIII-tubulin expressing HeLa; assay type: cell-based, human; settings: for IC50: Table 49, βIII tubulin expressing line, 48 hr, SRB assay; for Rr (β-III): relative resistance: IC50 of expressing line divided by IC50 of parental HeLa
Description: as §1, §2, §3

SK-OV-3-MDR-1-6/6 cells = assay: Antiproliferative SRB assay, Pgp expressing SK-OV-3; assay type: cell-based, human; settings: for IC50: Table 49, Pgp expressing line, 48 hr, SRB assay; for Rr (Pgp): relative resistance: IC50 of expressing line divided by IC50 of parental SK-OV-3
Description: as §1, §2
as §3, with “The expression of Pgp can lead to lower intracellular drug concentrations and diminished cytotoxic effects both in vitro and in vivo.” left out

A-10 cells = assay: Cellular microtubule loss by indirect immunofluorescence; assay type: cell-based, rat; settings: read-out: EC50 Values (nM) for Microtubule Loss in A-10 cells
Description: The effects of representative compounds on cellular microtubules were evaluated in A-10 (embryonic rat vascular smooth muscle cell line) cells using indirect immunofluorescence techniques as previously described (Tinley et al., Cancer Res. 63, 3211-20 (2003)). Cells were visualized using a Nikon Eclipse 80i fluorescence microscope and NIS Elements software. Changes in both interphase and mitotic microtubules were noted and photographed. The EC50 values, the concentration that causes approximately 50% loss of interphase microtubules was determined by evaluating a range of concentrations of each compound and the percent cellular microtubule depolymerization that was observed visually at each concentration was noted.
Microtubules were visualized by indirect immunofluorescence using a β-tubulin antibody, and the DNA was visualized with DAPI. A representative concentration response curve for NT-7-16 is also shown in FIG. 1 that was used to calculate its corresponding EC50 for microtubule loss. Concentration response curves for microtubule loss were plotted using data from at least three experiments for each compound and the corresponding EC50 values for microtubule loss are presented in Table 50.

[4] = Homo sapiens, MDA-MB-435, Table 48, 48 hr exposure, SRB assay
[5] = Homo sapiens, MDA-MB-435, Table 52
[6] = Homo sapiens, HeLa, Table 48, 48 hr exposure, read-out: HeLa Anti-Proliferative Activity, IC50
[7] = Homo sapiens, HeLa, Table 49, parental line, 48 hr, read-out: HeLa IC50
[8] = Homo sapiens, SK-OV-3, Table 48, 48 hr exposure, read-out: SK-OV-3 Anti-Proliferative Activity, IC50
[9] = Homo sapiens, SK-OV-3, Table 49, parental line, 48 hr, read-out: SK-OV-3 IC50
[10] = Rattus norvegicus, A10, Table 50, concentration causing approximately 50% loss of interphase microtubules
[11] = Table 49, parental line, 48 hr, read-out: HeLa IC50
[12] = Table 49, parental line, 48 hr, read-out: SK-OV-3 IC50
[13] = Table 50, concentration causing approximately 50% loss of interphase microtubules

IC50 [1, 4] | IC50 [1, 5] | IC50 [2, 6] | IC50 [3, 8] | IC50 (HeLa WT-β-III cells; Homo sapiens, HeLa) | IC50 (SK-OV-3-MDR-1-6/6 cells; Homo sapiens, SK-OV-3) | EC50 (A-10 cells; [10]) | melting point | Compound | IC50 [2, 7] | IC50 [3, 9] | Rr (β-III) (HeLa WT-β-III cells) | Rr (Pgp) (SK-OV-3-MDR-1-6/6 cells) | other results
9.3 ± 0.3 nM | 9.3 ± 0.3 nM | 10.9 ± 0.3 nM | 22.3 ± 0.5 nM | 19.4 ± 0.4 nM | 26.7 ± 0.3 nM | 24 nM | – | CCOC(=O)c1[nH]c(/C=C/C(=O)OC)c(-c2ccc(OC)c(OC)c2OC)c1Br [Example 8b, Trans-3-Bromo-5-(3-methoxy-3-oxoprop-1-en-1-yl)-4-(2,3,4-trimethoxyphenyl)-1H-pyrrole-2-carboxylic acid ethyl ester] | 10.9 ± 0.3 nM | 22.3 ± 0.5 nM | 1.8 | 1.2 | –
23.9 ± 1.2 nM | 23.9 ± 1.2 nM | 14.8 ± 0.2 nM | 16.4 ± 0.9 nM | 26 ± 1 nM | 10.4 ± 0.9 nM | 55 nM | – | CCOC(=O)c1[nH]c(/C=C\C(=O)OC)c(-c2ccc(OC)c(OC)c2OC)c1Br [Example 8a, Cis-3-Bromo-5-(3-methoxy-3-oxoprop-1-en-1-yl)-4-(2,3,4-trimethoxyphenyl)-1H-pyrrole-2-carboxylic acid ethyl ester] | 14.8 ± 0.2 nM | 16.4 ± 0.9 nM | 1.8 | 0.6 | –

The next lines start with the compound.

Compound | IC50 [1, 4] | IC50 [1, 5] | IC50 [2, 6] | IC50 [3, 8] | IC50 (HeLa WT-β-III cells; Homo sapiens, HeLa) | IC50 (SK-OV-3-MDR-1-6/6 cells; Homo sapiens, SK-OV-3) | EC50 (A-10 cells; [10]) | melting point | IC50 [2, 7] | IC50 [3, 9] | Rr (β-III) (HeLa WT-β-III cells) | Rr (Pgp) (SK-OV-3-MDR-1-6/6 cells) | other results
CCOC(=O)c1[nH]c(C=O)c(-c2ccc(OC)c(OC)c2OC)c1I [Example 4, 3-Iodo-4-(2,3,4-trimethoxyphenyl)-5-formyl-1H-pyrrole 2-carboxylic acid ethyl ester] | 76 ± 0.6 nM | 76 ± 0.6 nM | 39.9 ± 3.1 nM | 66.9 ± 5.8 nM | 100 ± 2 nM | 87 ± 23.6 nM | 129 nM | 126 to 128 °C | 39.9 ± 3.1 nM | 66.9 ± 5.8 nM | 2.5 | 1.3 | –
CCOC(=O)c1[nH]c(CNCCN)c(-c2ccc(OC)c(OC)c2OC)c1Br [Example 20, 5-[N-((2-Aminoethyl)amino)methyl]-3-Bromo-4-(2,3,4-trimethoxyphenyl)-1H-pyrrole 2-carboxylic acid ethyl ester] | – | – | – | – | – | – | – | 135 to 137 °C | – | – | – | – | –
Cis-3-Bromo-4-(2,3,4-trimethoxyphenyl)-5-oximino-1H-pyrrole 2-carboxylic acid ethyl ester [Example 10b] | – | – | – | – | – | – | – | – | – | – | 1.1 | 1.5 | IC50 ([1]; Table 48, 48 hr exposure, SRB assay): 25.3 ± 3.1 nM; IC50 ([1]; Table 52): 25.3 ± 3.1 nM; IC50 ([2]; Table 48, 48 hr exposure, read-out: HeLa Anti-Proliferative Activity, IC50): 29.4 ± 1 nM; IC50 [2, 11]: 29.4 ± 1 nM; IC50 ([3]; Table 48, 48 hr exposure, read-out: SK-OV-3 Anti-Proliferative Activity, IC50): 33.7 ± 1.3 nM; IC50 [3, 12]: 33.7 ± 1.3 nM; IC50 (HeLa WT-β-III cells): 31.3 ± 0.5 nM; IC50 (SK-OV-3-MDR-1-6/6 cells): 49.6 ± 2.4 nM; EC50 (A-10 cells; [13]): 108 nM; EC50 (A-10 cells; Table 52): 108 nM
CCOC(=O)c1[nH]c(C(=O)O)c(-c2ccc(OC)c(OC)c2OC)c1Br [Example 9, 3-Bromo-4-(2,3,4-trimethoxyphenyl)-5-carboxy-1H-pyrrole 2-carboxylic acid ethyl ester] | 1530 nM | 1530 nM | 2340 nM | – | – | – | 4600 nM | 173 to 175 °C | 2340 nM | – | – | – | –
CCOC(=O)c1[nH]c(CNCCNC(=O)OC(C)(C)C)c(-c2ccc(OC)c(OC)c2OC)c1Br [Example 19, 3-Bromo-5-[((N-2-tert-butoxycarbonylamino)-ethylamino)-methyl]-4-(2,3,4-trimethoxyphenyl)-1H-pyrrole 2-carboxylic acid ethyl ester] | – | – | – | – | – | – | – | 235 to 237 °C | – | – | – | – | –
CCOC(=O)c1cc(-c2ccc(OC)c(OC)c2OC)c(C=O)[nH]1 [Example 1, 4-(2,3,4-trimethoxyphenyl)-5-formyl-1H-pyrrole 2-carboxylic acid ethyl ester] | – | – | – | – | – | – | – | 138 to 140 °C | – | – | – | – | –
CCOC(=O)c1[nH]c(C=NO)c(-c2ccc(OC)c(OC)c2OC)c1Br [Example 10c] | – | – | – | – | – | – | – | – | – | – | 1.4 | 1.8 | IC50 ([1]; Table 52): 14 ± 0.8 nM; IC50 [2, 11]: 18 ± 0.9 nM; IC50 [3, 12]: 23.1 ± 0.5 nM; IC50 (HeLa WT-β-III cells): 25 ± 1.4 nM; IC50 (SK-OV-3-MDR-1-6/6 cells): 41.6 ± 1.9 nM; EC50 (A-10 cells; [13]): 56.2 nM; EC50 (A-10 cells; Table 52): 56.2 nM
C=Cc1[nH]c(C(=O)OCC)c(Br)c1-c1ccc(OC)c(OC)c1OC [Example 7, 3-Bromo-5-vinyl-4-(2,3,4-trimethoxyphenyl)-1H-pyrrole 2-carboxylic acid ethyl ester] | 17.6 ± 1 nM | 17.6 ± 1 nM | 23.8 ± 1.7 nM | 26.6 ± 1.1 nM | 20.5 ± 0.8 nM | 28.1 ± 1.9 nM | 54 nM | – | 23.8 ± 1.7 nM | 26.6 ± 1.1 nM | 0.9 | 1.1 | –
CCOC(=O)c1[nH]c(CO)c(-c2ccc(OC)c(OC)c2OC)c1Br [Example 5, 3-Bromo-5-(hydroxymethyl)-4-(2,3,4-trimethoxyphenyl)-1H-pyrrole 2-carboxylic acid ethyl ester] | 25.7 ± 0.8 nM | 25.7 ± 0.8 nM | 33.4 ± 0.8 nM | 37.4 ± 1.3 nM | 27.4 ± 3.1 nM | 46.6 ± 2.1 nM | 76 nM | – | 33.4 ± 0.8 nM | 37.4 ± 1.3 nM | 0.8 | 1.2 | –
